{"source": "patent US20250170101A1", "about": "“MONOACYLGLYCEROL LIPASE INHIBITORS AND USE THEREOF FOR THE TREATMENT AND MANAGEMENT OF PAIN AND RELATED CONDITIONS” (Psy Therapeutics, Inc., priority 2021, published 2025)", "key": {"[1]": {"biological_target": "T1, MAGL enzyme (Homo sapiens, UniProt Q99685)", "T1 sequence (Q99685 1-303)": "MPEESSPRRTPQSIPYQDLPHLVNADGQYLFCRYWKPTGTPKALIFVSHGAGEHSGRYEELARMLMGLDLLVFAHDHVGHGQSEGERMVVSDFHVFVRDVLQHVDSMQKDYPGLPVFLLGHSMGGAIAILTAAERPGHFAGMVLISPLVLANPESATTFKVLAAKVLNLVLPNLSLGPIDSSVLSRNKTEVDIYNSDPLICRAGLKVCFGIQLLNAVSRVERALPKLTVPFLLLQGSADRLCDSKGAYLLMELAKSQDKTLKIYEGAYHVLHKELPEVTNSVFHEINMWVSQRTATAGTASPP", "experiment": "MAGL reversible inhibition assay (washout), Example 22", "format": "biochemical", "set-up": "% MAGL activity returning after washout: concentration or dose not given beside the values"}, "[2]": {"experiment": "Pharmacokinetic study of compounds in mice, Example 25", "format": "in vivo, male C57BL/6 mice", "settings": "Brain, Oral, 5 mg/kg", "protocol": "Healthy male C57BL/6 mice (8-12 weeks old) weighing between 17 to 35 g were procured from Global, India. Temperature and humidity were maintained at 22±3° C. and 30-70%, respectively and illumination was controlled to give a sequence of 12 hr light and 12 hr dark cycle. Temperature and humidity were recorded by auto-controlled data logger system. All the animals were provided laboratory rodent diet. Reverse osmosis water treated with ultraviolet light was provided ad libitum.\nProtocol A: Twenty-four male mice were divided into two groups as; Group 1: 30 mg/kg/IP; Plasma and brain; Number of animals=12; Animal #1-12. Group 2: 30 mg/kg/PO; Plasma and brain; Number of animals=12; Animal #13-24. […] All samples were processed for analysis by protein precipitation using acetonitrile and analyzed with fit-for-purpose LC/MS/MS method (LLOQ—2.02 ng/mL for plasma and 6.06 ng/g for brain). Pharmacokinetic parameters were calculated using the non-compartmental analysis tool of Phoenix WinNonlin®.\nProtocol B: Thirty six mice were included into the study and divided in to three groups as Group 1 (n=12), Group 2 (n=12) and Group 3 (n=12) with n=2 mice per time-point design. […] Plasma and brain samples were quantified by fit-for-purpose LC-MS/MS method (LLOQ: 1.01 ng/mL for plasma and 2.02 ng/mL for brain). […]"}}, "data": [{"smiles": "O=C(c1cc(O)ccc1F)N1CC2(CC(n3cc(C(F)(F)F)c(-c4ccccc4F)n3)C2)C1", "note": "(single isomer, unassigned) [Compound 473, (2-fluoro-5-hydroxyphenyl){6-[3-(o-fluorophenyl)-4-(trifluoromethyl)-1-pyrazolyl]-2-aza-2-spiro[3.3]heptyl}methanone]", "values": [{"measurement": "degree to which MAGL enzymatic activity returned following washout of test compounds", "setting": "[1]; pre-washout compound concentration 1 μM", "value": 41}, {"measurement": "% MAGL activity returning after washout", "setting": "[1]; relative to control (no inhibitor before washout), immediately following 30 minute washout", "value": "<50", "unit": "%"}, {"measurement": "AUClast", "setting": "[2]", "value": 464.42, "unit": "ng·h/mL"}]}]}
